{"source": "patent US12697366B2", "about": "“Thermogenic compositions and methods” (Ohio State Innovation Foundation, priority 2016, dated 2026)", "key": {"3T3-L1 adipocytes": {"test_system": "3T3-L1 adipocytes", "assay": "Thermogenic gene expression in 3T3-L1 adipocytes (TaqMan / RT-PCR)", "assay_type": "cell-based, mouse", "method": "FIGS. 9A to 9D show DRG neurons (500 neurons per well) cultured in DRG culture medium only, or DRG culture medium with NT-3 (1 ng/mL), with NGF (10 ng/mL), with WT secretome (1/1, v/v), or with Aldh1a1^−/− secretome (1/1, v/v) for 24 hours. WT and Aldh1a1^−/− adipocytes differentiated for 5 days. Secretome is the media collected from these cells for 24 h. Neurite outgrowth parameters were assayed using the Thermo Scientific™ ArrayScan™ XTI Live High Content microscope and analyzed with the Neuronal Profiling Algorithm (ThermoFisher). Nine independent experiments were performed using DRG from three mice. Each DRG batch was analyzed in triplicate. Data are shown as mean±SD obtained with one DRG batch. Asterisks indicate P<0.05 between different groups; Mann-Whitney U test. FIG. 9A: Representative images show ~25% of area used for the automatic quantification of neuronal parameters in FIG. 3 per one condition. […] FIG. 9B: Secreted EFNA5 levels in the medium from 3T3-L1 preadipocytes and adipocytes differentiated for 4d were analyzed by ELISA. FIG. 9C: Basal metabolic rate (heat) was measured in PBS- and EFNA5-injected mice from Table 1, Study 4 by an open circuit indirect calorimetry treadmill. […] Expression was measured by RT-PCR and normalized by 18S.\nFIGS. 11A to 11I show adipokine Ereg is bilaterally associated with obesity and thermogenesis and activates PPARα. […] FIG. 11B: Ereg expression was measured in non-differentiated and differentiated (day 5) 3T3-L1 adipocytes (Mann-Whitney test) using a customized NanoString mouse panel. FIG. 11C: Ereg expression was measured in differentiated (day 5) 3T3-L1 and Aldh1a1^−/− adipocytes by Taqman and normalized to TATA box protein (TBP). FIG. 11D: Plasma EREG concentrations were measured in mice from Study 1 by western blot. […] FIG. 11E: Plasma EREG concentrations were measured and quantified in iAb of WT and ob/ob mice from Study 2 by western blot (n=5 per each group). […] FIG. 11F: EREG was measured in iAb, subcutaneous and brown fat by western blot. […] Expression level were measured by Taqman and normalized by TBP. […]"}, "[1]": {"test_system": "human brain endothelial cells (hBEC)", "assay": "FD-glucose uptake in human brain endothelial cells (hBEC)", "assay_type": "cell-based", "settings": "hINS 1.7 μM, AAC2 0.1 μM, 50 min; FIG. 42B", "method": "FD-glucose uptake in human brain endothelial cells (hBEC, n=8 per treatment) treated with vehicle (Veh; PBS, open bar) or hINS (1.7 μM), human leptin (hLep; 62.5 nM, hatched bar), or AAC2 (0.1 μM black bar) in the presence and absence of GLUT1 inhibitor (BAY-876; 10 nM in DMSO). Cells were pre-treated with or without BAY-876 for 40 min and then FD glucose and treatment reagents were added for additional 50 min of incubation. Data (%) was normalized to FD-glucose uptake in control (Veh) hBEC without inhibitor (100%)."}, "STZ mice": {"test_system": "STZ mice", "assay": "AAC2, INS and AAC2-INS treatment of STZ mice (streptozotocin-induced type 1 diabetes)", "settings": "mouse, in vivo", "method": "The untreated STZ mice died 32 days after STZ induction of experimental type 1 diabetes. […] Liver toxicity was measured by plasma levels of liver enzyme aspartate aminotransferase (AST).\nHuman INS was used for treatment to distinguish from endogenous mouse INS. […] Insulin tolerance test (ITT) was used to assess insulin sensitivity. […] Glucose tolerance test (GTT) was used to assess glucose tolerance.\n[…] SLC6A6 is a principal transporter for neurotransmitter and osmolyte taurine, in all treated STZ mice. […] MVK a key kinase in cholesterol synthesis pathway. […] GPX6 a key antioxidant enzyme induced in the liver in response to oxidative stress.\nCognitive performance was measured using Barnes maze behavioral test to measure spatial learning (escape latency (60B) and number of errors (60C)) and memory (60D)."}}}
{"substance": "EREG: Epiregulin, member of the epidermal growth factor family; recombinant mouse or human protein", "values": [{"measurement": "expression of thermogenic gene Pgc1a", "setting": "3T3-L1 adipocytes; 10 ng/ml recombinant EREG, FIG. 22", "result": "increases"}, {"measurement": "Ucp1 and Ucp2 expression", "setting": "3T3-L1 adipocytes; recombinant EREG 50 ng/mL, day 5", "result": "induced"}]}
{"substance": "insulin: insulin (bovine or human)", "values": [{"measurement": "glucose uptake in human blood-brain barrier endothelial cells", "setting": "[1]", "result": "not"}, {"measurement": "expression of Glutathone peroxidase (GPX6)", "setting": "STZ mice", "result": "significantly increased"}, {"measurement": "expression of insulin 1 gene (Ins1) in the brain", "setting": "STZ mice", "result": "detrimental suppression"}]}
